{"source": "patent EP2265599B1", "about": "“CRYSTAL FORM OF PHENYLAMINOPYRIMIDINE DERIVATIVE” (Natco Pharma Limited, priority 2008, dated 2009)", "key": {"ZR-71": {"system": "ZR-71", "assay": "Matrigel invasion assay (modified Boyden chamber), ZR-71", "assay_type": "cell-based", "conditions": "cells treated 48 h", "procedure": "(§1) The in vitro invasiveness of 4910, 5310 and U87 glioma cells and MDAMB231 and ZR71 breast cancer cells in the presence of specified concentrations of compounds were assessed using a modified Boyden chamber assay. Cells were treated with these compounds for 48 h. 1x10^6 cells were suspended in 600µl of serum-free medium supplemented with 0.2% BSA and placed in the upper compartment of the transwell chambers (Coming Costar Fischer Scientific Cat #07-200-158, Pittsburgh PA) coated with Matrigel (0.7 mg/ml). The lower compartment of the chamber was filled with 200 µl of serum medium and the cells were allowed to migrate for 24 h. After incubation, the cells were fixed and stained with Hema-3 and quantified as previously described (Mohanam et al. 1993). The migrated cells were imaged microscopically to determine the reduction in invasiveness induced by the compounds of this invention.\n(§2) The in vitro invasiveness of 4910, 5310 and U87 glioma cells and MDAMB231 and ZR71 breast cancer cells in the presence of specified concentrations of compounds were assessed using a modified Boyden chamber assay. Cells were treated with these compounds for 48 h."}, "K562 cells": {"system": "K562 cells", "assay": "Spleenic enlargement and Crk immunocytochemistry of spleen in nude mice implanted with K562 cells", "assay_type": "in vivo", "conditions": "ip injections", "procedure": "Spleen and any secondary tumors were harvested, fixed in formaldehyde and paraffin embedded as per standard protocols. Paraffin section were obtained and processed for immunocytochemistry. The rehydrated sections were treated with 0.3% H2O2 to inactivate any native peroxidases prior to immuno-probing. The sections were blocked with filter sterilized (0.22µm) 1% BSA-PBS at room temperature for 1h. Following blocking, the sections were immuno-probed with a human specific anti-Crk monoclonal primary antibody raised in rabbit against a synthetic peptide corresponding to residues in the SH2 domain, near the N-term of human CrkL protein (Abcam, Cambridge, MA, USA) in 1%BSA-PBS overnight. Secondary antibody (anti-rabbit) conjugated to HRP was used to detect the presence of primary antibody. The sections were briefly rinsed three times in PBS solution after immuno-probing with secondary antibody, and DAB HRP substrate was added per manufacture's instructions (Sigma St Louis MO USA). […] For negative controls primary antibody were eliminated. Leukemic mice spleen served as positive controls.\nMice were sacrificed after a decrease in LGI was observed and spleen harvested. […] Control mice also developed random subcutaneous tumors showing Crk expression, indicative of the presence of K562 cells."}, "[1]": {"system": "K562 luciferase expressing cells", "assay": "Leukemic survival study, K562 luciferase expressing cells implanted intraperitoneally", "assay_type": "in vivo, nude mice", "quoted_text": "K562 luciferase expressing cells were implanted intraperitoneally into nude mice; the mice were scanned using the xenogeny IVIS image station after ip injections of luciferin does determine implantations. Drug treatment was started as in previous studies day 15 after implantation. The animals were given treatment till day 42, after which drug treatment was stopped and survival of the animals determined as per the animal care regulations. […] Drug treatment was withdrawn on day 42 post implantation and survival of animals determined."}, "MDA-MB-231 cells": {"system": "MDA-MB-231 cells", "assay": "In vitro angiogenic assay (conditioned media on human dermal endothelial cells), MDA-MB-231", "assay_type": "cell-based", "conditions": "control condition and after radiation", "procedure": "(§3) The in vitro angiogenesis of 4910, 5310 and U87 glioma cells and MDAMB231 and ZR71 breast cancer cells in the presence of specified concentrations of compounds were determined as follows, cells (2x10^4/well) were seeded in 8-well chamber slides and were treated with various concentrations of test compounds. After a 24 h incubation period, the conditioned media was removed and added to a 4x 10^4 human dermal endothelial cell (monolayer in 8-well chamber slides) and the human dermal endothelial cells were allowed to grow for 72 h. Cells were then fixed in 3.7% formaldehyde and stained with H&E and photographed."}, "[2]": {"system": "Glioma xenograft cells 4910", "assay": "In vitro angiogenic assay (conditioned media on human dermal endothelial cells), 4910", "assay_type": "cell-based", "conditions": "4910 cells, with and without radiation", "procedure": "as §3"}, "[3]": {"system": "K562 luc human leukemia cells", "assay": "Drug effectiveness (De) from in vivo luciferase studies", "design": "species or system nude mice", "text": "[formula] Where: • Σalive = total number of mice alive per concentration at the end of experiment times photon count, Eluc = total number of mice alive showing luciferase expression per concentration at end of experiment and c represents control untreated animals times photon count and ∑c-initial represents the initial number of animals in control at start of experiment times photon count."}, "K5621uc cells": {"system": "K5621uc cells", "assay": "Drug temporal penetrance (Tp) after stopping drug treatment", "assay_type": "in vivo, nude mice", "conditions": "AN019 20mg/kg, AN024 20mg/kg, Imatinib 10mg/kg, daily ip from day 15, stopped on day 35, imaged till day 45", "procedure": "The temporal penetrance was calculated applying the following equation, Tp=. (((P)/(n))a -((P)/(n))ter)/(((P)/(n))a -((P)/(n))b) [formula]\nWhere: • P=photon counts at day 'a', day 'ter', or day 'b' where 'a' is the day when drug treatment was stopped and 'ter' is the day when the experiment was terminated and 'b' is the day where P is minimum after day a but before day 'ter'. • n=number of animals alive when P was measured.\nThe animals were imaged at 6 day intervals post transplantation. […] Drug treatment was stopped on day 35 and animals were imaged till day 45, and calculated as described in methods."}, "5310 cells": {"system": "5310 cells", "assay": "In vitro angiogenic assay (conditioned media on human dermal endothelial cells), 5310", "assay_type": "cell-based", "conditions": "control conditions and after radiation", "procedure": "as §3"}, "4910": {"system": "4910", "assay": "Matrigel invasion assay (modified Boyden chamber), 4910", "assay_type": "cell-based, human", "conditions": "cells treated 48 h", "procedure": "as §1, §2"}, "Baf3E255K": {"system": "Baf3E255K", "assay": "In vivo anti-leukemic activity, blast cell count in blood smears, Baf3E255K implanted nude mice", "conditions": "Imatinib 10mg/kg, AN019 20mg/kg, AN024 20mg/kg, oral gavage or ip from day 15; up to day 42", "text": "(§4) Blood smears were obtained via the tail vein or via the femoral vein every 6th day and blast cells counted and graphically represented.\n(§5) Abdominal swelling and decrease in activity was monitored daily, blood smear taken via the tail vein or the femoral vein every 6th day and H&E stained as per standard protocols. 42 days after implantation, mice were sacrificed and spleens harvested.\n(§6) Nude mice were intraperitoneally implanted with Baf3 mutant cells (wt, T315I, M351T or E255K). […] Blood was drawn from the femoral vein or tail vein every 6th day and blast cell count determined and graphically represented."}, "Baf3M351T": {"system": "Baf3M351T", "assay": "In vivo anti-leukemic activity, blast cell count in blood smears, Baf3M351T implanted nude mice", "conditions": "Imatinib 10mg/kg, AN019 20mg/kg, AN024 20mg/kg, oral gavage or ip from day 15; up to day 42", "text": "as §4, §5, §6"}, "[4]": {"system": "K562 luc human leukemia cells", "assay": "Low dose oral treatment of nude mice implanted with K562 luc cells (luciferase expression)", "assay_type": "in vivo", "conditions": "oral administration", "procedure": "Nude mice (nu/nu) were implanted with K562 cells (1x106) normal/luc via tail vein. Five mice were used per group and divided into 24 groups + 2 control. All groups were implanted with K562 normal/luc cells. Of the 24 groups, 12 were used for luciferase studies whereas the other 12 were used for blood smear count studies.\nDrugs were administered by oral gavage (2% gum acacia and 2% SLS in an aqueous suspension)."}, "ZR-71 cells": {"system": "ZR-71 cells", "assay": "In vitro angiogenic assay (conditioned media on human dermal endothelial cells), ZR-71", "assay_type": "cell-based", "procedure": "as §3"}, "Baf3Wt": {"system": "Baf3Wt", "assay": "In vivo anti-leukemic activity, blast cell count in blood smears, Baf3Wt implanted nude mice", "conditions": "Imatinib 10mg/kg, AN019 20mg/kg, AN024 20mg/kg, oral gavage or ip from day 15; up to day 42", "text": "as §4, §5, §6"}}, "note": "Entries after “also recorded” stand apart in the source; their conditions may differ.", "data": [{"smiles": "Cc1ccc(NC(=O)c2cc(C(F)(F)F)cc(C(F)(F)F)c2)cc1Nc1nccc(-c2cccnc2)n1", "note": "[AN019, (3,5-bis trifluoromethyl)-N-[4-methyl-3-(4-pyridin-3yl-pyrimidin-2ylamino)-phenyl]-benzamide]", "values": [{"measurement": "+Radiation % Invasion", "setting": "ZR-71; ZR-71, with radiation", "value": 19, "unit": "%"}, {"measurement": "-Radiation % Invasion", "setting": "ZR-71; ZR-71, without radiation", "value": 33, "unit": "%"}, {"measurement": "Crk expression in spleen (immunohistochemistry)", "setting": "K562 cells; paraffin sections of spleen", "value": "basal levels of Crk expression; also recorded: only basal level expression of Crk expression comparable to negative control"}, {"measurement": "Spleenic enlargement (gross observation)", "setting": "K562 cells; spleen harvested after decrease in LGI", "value": "did not show any spleenic enlargement"}, {"measurement": "curative effect after withdrawal of drug treatment (animals cured at day 58)", "setting": "[1]; drug treatment stopped at day 42, based on luminescence (Fig. 20)", "value": "continued to show curative effect"}, {"measurement": "Blast cell count from blood smears after withdrawal of drug treatment", "setting": "[1]; drug treatment withdrawn on day 42 (Fig. 21)", "value": "showed effectiveness after withdrawal of drug treatment"}, {"measurement": "mortality", "setting": "[1]; treatment from day 15 till day 42, then withdrawn, AN024 death determined to be other than leukemia", "value": "did not show any mortality"}, {"measurement": "animals showing no signs of leukemia / complete absence of leukemic symptoms", "setting": "[1]; treatment from day 15 till day 42, then withdrawn, AN024 on day 55", "value": "7 of the 10 animals"}, {"measurement": "inhibition of angiogenesis", "setting": "MDA-MB-231 cells", "value": "a slight inhibition was observed in both control and radiation treatments"}, {"measurement": "inhibition of angiogenesis", "setting": "[2]", "value": "inhibition of angiogenesis similar to MDA-MB-231 cells with an increase in angiogenic inhibition after radiation"}, {"measurement": "De (drug effectiveness)", "setting": "[3]; 5mg/kg", "value": 25.82, "unit": "%"}, {"measurement": "De (drug effectiveness)", "setting": "[3]; 10mg/kg", "value": 78.20, "unit": "%"}, {"measurement": "De (drug effectiveness)", "setting": "[3]; 20mg/kg", "value": 83.40, "unit": "%"}, {"measurement": "De (drug effectiveness)", "setting": "[3]; 40mg/kg", "value": 85.20, "unit": "%"}, {"measurement": "Tp (temporal penetrance)", "setting": "K5621uc cells", "value": 2.0}, {"measurement": "inhibition of angiogenesis", "setting": "5310 cells", "value": "inhibition of angiogenesis was greater in control conditions than after radiation treatment"}, {"measurement": "+Radiation % Invasion", "setting": "4910; 4910, with radiation", "value": 15, "unit": "%"}, {"measurement": "-Radiation % Invasion", "setting": "4910; 4910, without radiation", "value": 42, "unit": "%"}, {"measurement": "blast cell count in blood smears", "setting": "Baf3E255K", "value": "significant decrease in blast cell count"}, {"measurement": "blast cell count in blood smears", "setting": "Baf3M351T", "value": "significant decrease in blast cell count"}, {"measurement": "luciferase expression", "setting": "[4]; 1mg/kg", "value": "did not induce a decrease in luciferase expression"}, {"measurement": "luciferase expression", "setting": "[4]; 5mg/kg", "value": "caused fixation of leukemia cells at constant expression levels"}, {"measurement": "luciferase expression", "setting": "[4]; 10mg/kg", "value": "caused a decrease in luciferase expression"}, {"measurement": "luciferase expression", "setting": "[4]; 20mg/kg", "value": "caused a decrease in luciferase expression"}, {"measurement": "inhibition of angiogenesis", "setting": "ZR-71 cells", "value": "complete inhibition of angiogenesis"}, {"measurement": "blast cell count in blood smears", "setting": "Baf3Wt", "value": "complete regression of leukemic blast cells"}]}]}
